The NIST ThermoML archive (doi:10.1021/je5003797)
Values joined by “and” are separate entries in the source; they are usually repeats but may differ in a detail not shown here. Identical values can stand only once. Numbers after ± are expanded uncertainties.

Test: mn = molality of the nth substance listed, in mol/kg
Conditions: 298.15 K, 101 kPa, Liquid

NC=O [formamide] + O
Conditions	mass density
m1 = 0.4985	1000.74 ± 0.19 kg/m3
m1 = 0.5096	1000.84 ± 0.19 kg/m3
m1 = 0.5191	1000.9 ± 0.18 kg/m3
m1 = 0.9969	1004.03 ± 0.19 kg/m3
m1 = 1.081	1004.59 ± 0.19 kg/m3
m1 = 1.085	1004.61 ± 0.19 kg/m3
m1 = 1.499	1007.18 ± 0.2 kg/m3 and 1007.2 ± 0.2 kg/m3
m1 = 1.5	1007.19 ± 0.2 kg/m3
m1 = 1.999	1010.19 ± 0.2 kg/m3 and 1010.16 ± 0.2 kg/m3
m1 = 2.007	1010.21 ± 0.2 kg/m3
m1 = 2.48	1012.92 ± 0.2 kg/m3
m1 = 2.488	1012.96 ± 0.21 kg/m3
m1 = 2.502	1013.04 ± 0.21 kg/m3
m1 = 2.994	1015.72 ± 0.21 kg/m3
m1 = 3	1015.76 ± 0.21 kg/m3
m1 = 3.002	1015.76 ± 0.21 kg/m3
m1 = 3.476	1018.24 ± 0.21 kg/m3
m1 = 3.502	1018.39 ± 0.22 kg/m3
m1 = 3.535	1018.55 ± 0.21 kg/m3
m1 = 3.999	1020.84 ± 0.22 kg/m3
m1 = 4.044	1021.08 ± 0.22 kg/m3
m1 = 4.137	1021.53 ± 0.22 kg/m3
m1 = 4.49	1023.21 ± 0.22 kg/m3
m1 = 4.502	1023.26 ± 0.22 kg/m3
m1 = 4.505	1023.29 ± 0.22 kg/m3
m1 = 5.002	1025.56 ± 0.23 kg/m3
m1 = 5.012	1025.61 ± 0.23 kg/m3
m1 = 5.067	1025.86 ± 0.23 kg/m3
m1 = 5.49	1027.73 ± 0.23 kg/m3
m1 = 5.547	1027.97 ± 0.23 kg/m3
m1 = 5.575	1028.1 ± 0.23 kg/m3
m1 = 5.973	1029.8 ± 0.23 kg/m3
m1 = 6.008	1029.91 ± 0.23 kg/m3
m1 = 6.01	1029.95 ± 0.24 kg/m3
m1 = 6.497	1031.91 ± 0.24 kg/m3
m1 = 6.503	1031.93 ± 0.24 kg/m3
m1 = 6.51	1031.98 ± 0.24 kg/m3
m1 = 6.99	1033.87 ± 0.24 kg/m3
m1 = 7.004	1033.94 ± 0.24 kg/m3
m1 = 7.056	1034.12 ± 0.24 kg/m3
m1 = 7.468	1035.69 ± 0.24 kg/m3
m1 = 7.481	1035.75 ± 0.24 kg/m3
m1 = 7.493	1035.75 ± 0.24 kg/m3
m1 = 7.99	1037.61 ± 0.25 kg/m3
m1 = 8.002	1037.64 ± 0.25 kg/m3
m1 = 8.037	1037.77 ± 0.25 kg/m3
m1 = 8.468	1039.27 ± 0.25 kg/m3
m1 = 8.506	1039.42 ± 0.25 kg/m3
m1 = 8.522	1039.45 ± 0.25 kg/m3
m1 = 8.947	1040.93 ± 0.25 kg/m3
m1 = 8.99	1041.07 ± 0.25 kg/m3
m1 = 9.032	1041.2 ± 0.25 kg/m3
